According to US11414416B1, “Compounds and uses thereof” (Foghorn Therapeutics Inc., priority 2019, dated 2022):

biological target: Nanoluciferase-BRD9 fusion protein (Homo sapiens (Human), UniProt Q9H8M2); test: SYO1 BRD9 NanoLuc degradation assay; assay type: cell-based; conditions: Table 5A; SYO-1 cells expressing 3×FLAG-NLuc-BRD9, 6 hours; read-out: SYO1 BRD9-NanoLuc degradation IC50
How it was run: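 Degradation was read as loss of nanoluciferase signal (Nano-Glo) after 6 h compound exposure in a stable SYO-1 line carrying 3×FLAG-NLuc-BRD9 (8000 cells/well). Normalised between DMSO (high) and a 1 μM known BRD9 degrader (low).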

Sequence of Nanoluciferase-BRD9 fusion protein (Q9H8M2 whole entry, the tested form may be a part): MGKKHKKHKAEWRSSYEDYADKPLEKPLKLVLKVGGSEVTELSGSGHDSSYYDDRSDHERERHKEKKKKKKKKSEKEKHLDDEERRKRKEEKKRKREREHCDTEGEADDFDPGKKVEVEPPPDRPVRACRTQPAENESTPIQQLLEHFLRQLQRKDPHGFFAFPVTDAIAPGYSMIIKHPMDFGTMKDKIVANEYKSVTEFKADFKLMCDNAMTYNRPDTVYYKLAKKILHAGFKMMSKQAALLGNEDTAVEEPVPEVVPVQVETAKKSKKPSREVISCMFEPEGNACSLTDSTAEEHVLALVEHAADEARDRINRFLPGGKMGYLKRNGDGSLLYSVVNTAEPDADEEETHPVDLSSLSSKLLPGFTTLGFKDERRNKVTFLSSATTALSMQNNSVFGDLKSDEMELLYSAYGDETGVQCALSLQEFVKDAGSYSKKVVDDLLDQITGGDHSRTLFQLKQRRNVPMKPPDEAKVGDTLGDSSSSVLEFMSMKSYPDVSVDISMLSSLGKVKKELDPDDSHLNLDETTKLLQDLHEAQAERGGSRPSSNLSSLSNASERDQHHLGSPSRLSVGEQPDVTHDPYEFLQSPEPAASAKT

Row | Structure (SMILES) | DC50
1 | COc1cc(-c2cn(C)c(=O)c3cnccc23)cc(OC)c1CN(C)C1CCN(CCOc2ccc3c(c2)C(=O)N(C2CCC(=O)NC2=O)C3=O)CC1 (stereo not shown) [Compound D51, 5-[2-[4-([[2,6-dimethoxy-4-(2-methyl-1-oxo-2,7-naphthyridin-4-yl)phenyl]methyl] (methyl)amino)piperidin-1-yl]ethoxy]-2-(2,6-dioxopiperidin-3-yl)isoindole-1,3-dione; formic acid] | < 10 nM
2 | COc1cc(-c2cn(C)c(=O)c3cnccc23)cc(OC)c1CN1CC(S(=O)(=O)NCCCCNc2ccc3c(c2)C(=O)N(C2CCC(=O)NC2=O)C3=O)C1 (stereo not shown) [Compound D22, 1-[[2,6-dimethoxy-4-(2-methyl-1-oxo-1,2-dihydro-2,7-naphthyridin-4-yl)phenyl]methyl]-N-(4-[[2-(2,6-dioxopiperidin-3-yl)-1,3-dioxo-2,3-dihydro-1H-isoindol-5-yl]amino]butyl) azetidine-3-sulfonamide formic acid] | 10 to 100 nM

same assay, conditions: Table 5B; SYO-1 cells expressing 3×FLAG-NLuc-BRD9, 6 hours; read-out: SYO1 BRD9-NanoLuc degradation IC50

Row | Structure (SMILES) | DC50
3 | COc1cc(-c2cn(C)c(=O)c3cnccc23)cc(OC)c1CN1CC(CC(=O)N[C@@H]2C[C@]23CCN(c2ccc4c(c2)C(=O)N(C2CCC(=O)NC2=O)C4=O)C3)C1 (stereo partly shown) [Compound D231] | 100 to 1000 nM
4 | COc1cc(-c2cn(C)c(=O)c3cnccc23)cc(OC)c1CN1CCC2(CC1)CCN(C(=O)CC#Cc1ccc3c(c1)C(=O)N(C1CCC(=O)NC1=O)C3=O)C2 (stereo not shown) [Compound D313] | < 10 nM
5 | COc1cc(-c2cn(C)c(=O)c3cnccc23)cc(OC)c1CN1CCC(c2ncc(COc3ccc4c(c3)C(=O)N(C3CCC(=O)NC3=O)C4=O)o2)CC1 (stereo not shown) [Compound D326] | < 10 nM
6 | COc1cc(-c2cn(C)c(=O)c3cnccc23)cc(OC)c1CN(C)CCCCNC1CC2(CCN(c3ccc4c(c3)C(=O)N(C3CCC(=O)NC3=O)C4=O)CC2)C1 (stereo not shown) [Compound D247] | < 10 nM
7 | COc1cc(-c2cn(C)c(=O)n3ccnc23)cc(OC)c1CN1CC(CN2CCC3(CC2)CN(c2ccc4c(c2)C(=O)N(C2CCC(=O)NC2=O)C4)C3)C1 (stereo not shown) [Compound D365] | 10 to 100 nM
8 | COc1cc(-c2cn(C)c(=O)c3cnccc23)cc(OC)c1CN(C)C(=O)CCCCN1CCC2(CC(Oc3ccc4c(c3)C(=O)N(C3CCC(=O)NC3=O)C4=O)C2)C1 (stereo not shown) [Compound D263] | < 10 nM
9 | CNC(=O)NCc1cc(-c2cc(OC)c(CN3CC(CN4CCC5(CC4)CN(c4ccc6c(c4)C(=O)N(C4CCC(=O)NC4=O)C6=O)C5)C3)c(OC)c2)cn(C)c1=O (stereo not shown) [Compound D350] | 100 to 1000 nM
10 | COc1cc(-c2cn(C)c(=O)c3cnccc23)cc(OC)c1CN1CCC2(C1)CN(CC#Cc1ccc3c(c1)C(=O)N(C1CCC(=O)NC1=O)C3=O)C2 (stereo not shown) [Compound D268] | < 10 nM
11 | COc1cc(-c2cn(C)c(=O)c3cnccc23)cc(OC)c1CN(C)C(=O)CCCCN1CCC2(CC1)CN(c1ccc3c(c1)C(=O)N(C1CCC(=O)NC1=O)C3=O)C2 (stereo not shown) [Compound D186] | < 10 nM
12 | COc1cc(-c2cn(C)c(=O)c3cnncc23)cc(OC)c1CN1CCC(CN2CCC3(CC2)CC(Oc2ccc4c(c2)CN(C2CCC(=O)NC2=O)C4=O)C3)CC1 (stereo not shown) [Compound D367] | < 10 nM
13 | COc1cc(-c2cn(C)c(=O)c3cnccc23)cc(OC)c1CN1CC(n2cc(COCCOc3ccc4c(c3)C(=O)N(C3CCC(=O)NC3=O)C4=O)nn2)C1 (stereo not shown) [Compound D299] | < 10 nM
14 | COc1cc(-c2cn(C)c(=O)c3cnccc23)cc(OC)c1CN1CCC(n2cc(COC3CCN(c4ccc5c(c4)C(=O)N(C4CCC(=O)NC4=O)C5=O)CC3)nn2)CC1 (stereo not shown) [Compound D281] | 10 to 100 nM
15 | COc1cc(-c2cn(C)c(=O)c3cnccc23)cc(OC)c1Cn1cc(CN2CC(Oc3ccc4c(c3)C(=O)N(C3CCC(=O)NC3=O)C4=O)C2)nn1 (stereo not shown) [Compound D270] | 10 to 100 nM
16 | COc1cc(-c2cn(C)c(=O)c3cnccc23)cc(OC)c1CN1CC(CC(=O)NC2CC3(C2)CN(c2ccc4c(c2)C(=O)N(C2CCC(=O)NC2=O)C4=O)C3)C1 (stereo not shown) [Compound D194] | < 10 nM

The remaining lines, values ahead:

Row | DC50 | Structure (SMILES)
17 | < 10 nM | COc1cc(-c2ccc(=O)n(C)c2)cc(OC)c1CN1CC(CN2CCC3(CC2)CN(c2ccc4c(c2)C(=O)N(C2CCC(=O)NC2=O)C4=O)C3)C1 (stereo not shown) [Compound D347]
18 | < 10 nM | COc1cc(-c2cn(C)c(=O)c3cnccc23)cc(OC)c1CN(C)C(=O)CCCCN1CCC2C1CN2c1ccc2c(c1)C(=O)N(C1CCC(=O)NC1=O)C2=O (stereo not shown) [Compound D205]
19 | 10 to 100 nM | COc1cc(-c2cn(C)c(=O)c3cnccc23)cc(OC)c1CN1CC(CC(=O)N2CCC3(CC(Oc4ccc5c(c4)C(=O)N([C@@H]4CCC(=O)NC4=O)C5=O)C3)C2)C1 (stereo partly shown) [Compound D266]
20 | < 10 nM | COc1cc(-c2cn(C)c(=O)c3cnccc23)cc(OC)c1CN(C)C(=O)CCCCN1CC2(CCN(c3ccc4c(c3)C(=O)N(C3CCC(=O)NC3=O)C4=O)C2)C1 (stereo not shown) [Compound D187]
21 | > 1000 nM | COc1cc(-c2cnc(=O)n(C)c2)cc(OC)c1CN1CCN(CCC2CCN(c3ccc4c(c3)C(=O)N(C3CCC(=O)NC3=O)C4=O)CC2)CC1 (stereo not shown) [Compound D342]
22 | < 10 nM | COc1cc(-c2cn(C)c(=O)c3cnccc23)cc(OC)c1CN(C)C(=O)CCCCN1CC2(C1)CN(c1ccc3c(c1)C(=O)N(C1CCC(=O)NC1=O)C3=O)C2 (stereo not shown) [Compound D206]
23 | < 10 nM | COc1cc(-c2cn(C)c(=O)c3cnccc23)cc(OC)c1CN1CCC2(CC1)CN(C(=O)CCC#Cc1ccc3c(c1)C(=O)N(C1CCC(=O)NC1=O)C3=O)C2 (stereo not shown) [Compound D217]
24 | < 10 nM | COc1cc(-c2cn(C)c(=O)c3cnccc23)cc(OC)c1CN1CCC(CN2CCC3(CC2)CC(Oc2ccc4c(c2)C(=O)N(C2CCC(=O)NC2=O)C4=O)C3)CC1 (stereo not shown) [Compound D304]
25 | < 10 nM | COc1cc(-c2cn(C)c(=O)c3cnccc23)cc(OC)c1CN(C)CCn1cc(COCCOc2ccc3c(c2)C(=O)N(C2CCC(=O)NC2=O)C3=O)nn1 (stereo not shown) [Compound D275]
26 | < 10 nM | COc1cc(-c2cn(C)c(=O)c3cnccc23)cc(OC)c1CN1CC2(CCN(CCCC#Cc3ccc4c(c3)C(=O)N(C3CCC(=O)NC3=O)C4=O)C2)C1 (stereo not shown) [Compound D211]
27 | < 10 nM | COc1cc(-c2cn(C)c(=O)c3cnccc23)cc(OC)c1CN(C)CCCCN1CCC2(CC(Oc3ccc4c(c3)C(=O)N(C3CCC(=O)NC3=O)C4=O)C2)C1 (stereo not shown) [Compound D253]
28 | 10 to 100 nM | COc1cc(-c2cn(C)c(=O)c3cnccc23)cc(OC)c1CN(C)CCOCCn1cc(COCCOc2ccc3c(c2)C(=O)N(C2CCC(=O)NC2=O)C3=O)nn1 (stereo not shown) [Compound D293]
29 | < 10 nM | COc1cc(-c2cn(C)c(=O)c3cnccc23)cc(OC)c1CN1CC2(CCN(C(=O)CCC#Cc3ccc4c(c3)C(=O)N(C3CCC(=O)NC3=O)C4=O)CC2)C1 (stereo not shown) [Compound D219]
30 | < 10 nM | COc1cc(-c2cn(C)c(=O)c3cnccc23)cc(OC)c1CN1CCC2C(C1)CN2C(=O)CCC#Cc1ccc2c(c1)C(=O)N(C1CCC(=O)NC1=O)C2=O (stereo not shown) [Compound D243]
31 | < 10 nM | COc1cc(-c2cn(C)c(=O)c3cnccc23)cc(OC)c1CN1CCC2(CC1)CCN(C(=O)C#Cc1ccc3c(c1)C(=O)N(C1CCC(=O)NC1=O)C3=O)C2 (stereo not shown) [Compound D240]
32 | < 10 nM | COc1cc(-c2cc(C)c(=O)n(C)c2C)cc(OC)c1CN1CCN(c2ccc3c(c2)C(=O)N(C2CCC(=O)NC2=O)C3=O)CC1 (stereo not shown) [Compound D343]
33 | < 10 nM | COc1cc(-c2cn(C)c(=O)c3cnccc23)cc(OC)c1CN1CC2(CCN(C(=O)CCC#Cc3ccc4c(c3)C(=O)N(C3CCC(=O)NC3=O)C4=O)C2)C1 (stereo not shown) [Compound D218]

same assay, conditions: Table 5C; SYO-1 cells expressing 3×FLAG-NLuc-BRD9, 6 hours; read-out: SYO1 BRD9-NanoLuc degradation IC50

Row | Structure (SMILES) | DC50
34 | COc1cc(-c2cn(C)c(=O)c3cnn(C)c23)cc(OC)c1CN1CCC2(CC1)CN(c1ccc3c(c1)C(=O)N(C1CCC(=O)NC1=O)C3)C2 (stereo not shown) [Compound D414] | < 10 nM
35 | COc1cc(-c2ccn3c(=O)n(C)ccc23)cc(OC)c1CN1CCC2(CC1)CN(c1ccc3c(c1)C(=O)N(C1CCC(=O)NC1=O)C3)C2 (stereo not shown) [Compound D435] | > 1000 nM
36 | COc1cc(-c2cn(C)c(=O)c3cccn23)cc(OC)c1CN1CCC2(CC1)CN(c1ccc3c(c1)C(=O)N(C1CCC(=O)NC1=O)C3)C2 (stereo not shown) [Compound D431] | < 10 nM
37 | COc1cc(-c2cc(C(F)F)c(=O)n(C)c2C)cc(OC)c1CN1CCC(CN2CCC3(CC2)CN(c2ccc4c(c2)C(=O)N(C2CCC(=O)NC2=O)C4)C3)CC1 (stereo not shown) [Compound D410] | < 10 nM
38 | COc1cc(-c2cccc3c(=O)n(C)ccc23)cc(OC)c1CN1CCC2(CC1)CN(c1ccc3c(c1)C(=O)N(C1CCC(=O)NC1=O)C3)C2 (stereo not shown) [DD13] | 10 to 100 nM
39 | COc1cc(-c2cc(C(F)F)c(=O)n(C)c2)cc(OC)c1CN1CCC2(C1)CN(c1ccn3c(=O)n(C4CCC(=O)NC4=O)nc3c1)C2 (stereo not shown) [Compound D432] | 10 to 100 nM
40 | COc1cc(-c2c(C)n(C)c(=O)c3[nH]c(C)cc23)cc(OC)c1CN1CCC2(CC1)CN(c1ccc3c(c1)C(=O)N(C1CCC(=O)NC1=O)C3=O)C2 (stereo not shown) [Compound D446] | > 1000 nM
41 | COc1cc(-c2cn(C)c(=O)c3[nH]cc(C)c23)cc(OC)c1CN1CCC2(CC1)CN(c1ccc3c(c1)C(=O)N(C1CCC(=O)NC1=O)C3)C2 (stereo not shown) [Compound D426] | < 10 nM

Other lines, results leading:

Row | DC50 | Structure (SMILES)
42 | < 10 nM | COc1cc(-c2cn(C)c(=O)c3cn(OC)nc23)cc(OC)c1CN1CCC2(CC1)CN(c1ccc3c(c1)C(=O)N(C1CCC(=O)NC1=O)C3)C2 (stereo not shown) [Compound D462]
43 | 10 to 100 nM | COc1cc(C(=O)N2CCC3(CC2)CN(c2ccc4c(c2)C(=O)N(C2CCC(=O)NC2=O)C4)C3)cc(-c2cn(C)c(=O)c3cnccc23)c1 (stereo not shown) [Compound D380]
44 | < 10 nM | COc1cc(-c2cc(C)c(=O)n(C)c2C)cc(OC)c1CN1CCC(CN2CCC3(CC2)CN(c2ccc4c(c2)C(=O)N(C2CCC(=O)NC2=O)C4)C3)CC1 (stereo not shown) [Compound D397]
45 | > 1000 nM | COc1cc(-c2cn(C)c(=O)c3cnccc23)cc(OC)c1CN1CCC2(CC1)CN(c1ccc3c(c1)C(=O)N(C1CC(=O)NC1=O)C3=O)C2 (stereo not shown) [Compound D383]
46 | < 10 nM | COc1cc(-c2cn(C)c(=O)c3[nH]ncc23)cc(OC)c1CN1CCC2(CC1)CN(c1ccc3c(c1)C(=O)N(C1CCC(=O)NC1=O)C3)C2 (stereo not shown) [Compound D433]
